Some test systems named below: COLO 205; HT-29; HCC 2998; OVCAR-4; NCI/ADR-RES; HL-60; RXF 393; A498; NCI-H226; MOLT-4; NCI-H460; UO-31; SK-MEL-2; HOP-92; A549; UACC-62; KM12; OVCAR-3; SW-620; SF-295.
What all share (assay): inhibition of tumour cell growth, NCI panel, 48 h

SMILES strings stand for the structures.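 48-hour exposure; five concentrations; linearly interpolated endpoints. GI50 = concentration required for 50% inhibition of growth.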 Activity calls are given as the source filed them. Rule as the data show it: active = GI50 up to about 1.1 µM and inactive = higher. Where only a bound is given, the exact number is not on record here.

For `CN(C)C(=S)/N=c1\ssc(=S)n1Cc1ccccc1`, the GI50 with COLO 205 is 0.288 µM (active); in the experiment on HT-29, 0.308 µM (active); in the experiment on HCC 2998, 0.57 µM (active); in the experiment on OVCAR-4 it was 3.42 µM (inactive); in the experiment with NCI/ADR-RES, 0.119 µM (active); in the experiment with HL-60, 0.338 µM (active). For the same molecule, the GI50 with RXF 393 was 0.172 µM (active); with A498, 0.51 µM (active); in the experiment on NCI-H226, 2.61 µM (inactive); in the experiment with MOLT-4, 0.569 µM (active); in the experiment on NCI-H460, 0.34 µM (active); in the experiment on UO-31, 0.667 µM (active). Moreover, the GI50 was 0.365 µM (active) with SK-MEL-2; 0.342 µM (active) with HOP-92; 0.78 µM (active) with A549; 0.312 µM (active) in the experiment with UACC-62; 0.24 µM (active) in the experiment on KM12; 0.168 µM (active) in the experiment on OVCAR-3. Moreover, the figures for the GI50 in the experiment on SW-620 and in the experiment with SF-295 were 0.201 µM (active) and 0.229 µM (active), respectively.
As to `NC(=O)c1cc(N(CCO)CCO)c([N+](=O)[O-])cc1[N+](=O)[O-]`, the GI50 in the experiment with COLO 205, with HT-29, in the experiment with HCC 2998, in the experiment on OVCAR-4, with NCI/ADR-RES and in the experiment on HL-60 was > 100 µM (inactive) in each case. The GI50 with RXF 393, with A498, with NCI-H226, in the experiment with MOLT-4, in the experiment on NCI-H460 and with UO-31 was > 100 µM (inactive) each time. Further, the GI50 in the experiment with SK-MEL-2, with HOP-92, with A549, in the experiment with UACC-62, in the experiment with KM12 and in the experiment on OVCAR-3 was > 100 µM (inactive) throughout. Further, the GI50 in the experiment with SW-620 and in the experiment with SF-295 was > 100 µM (inactive) in each case.
`COc1cc(NS(C)(=O)=O)ccc1N1Cc2c[nH]c3ccc4nc(C)cc1c4c23`: the GI50 with COLO 205 was > 100 µM (inactive); in the experiment on HT-29 it was > 100 µM (inactive); in the experiment with HCC 2998, > 100 µM (inactive); in the experiment on OVCAR-4, 49.9 µM (inactive); with NCI/ADR-RES it was > 100 µM (inactive); in the experiment on HL-60, 91.4 µM (inactive). Moreover, the GI50 is 32 µM (inactive) with RXF 393; > 100 µM (inactive) in the experiment on A498; 38.8 µM (inactive) in the experiment with NCI-H226; 48.5 µM (inactive) with MOLT-4; 86.1 µM (inactive) in the experiment with NCI-H460; > 100 µM (inactive) with UO-31. For the same molecule, the GI50 in the experiment on SK-MEL-2 was 74 µM (inactive); in the experiment with HOP-92, 24.9 µM (inactive); with A549, 62.5 µM (inactive); with UACC-62, 72.3 µM (inactive); in the experiment on KM12 it was > 100 µM (inactive); in the experiment with OVCAR-3 it was 31 µM (inactive). Also, the GI50 with SW-620 was > 100 µM (inactive); with SF-295 it was 54.8 µM (inactive).
Consider `COc1ccc(-c2c3c(cc4cc5c(cc24)OCO5)C(=O)OC3)cc1OC`, for which the GI50 with COLO 205 is 0.383 µM (active); with HT-29, 0.215 µM (active); in the experiment on HCC 2998, 2.99 µM (inactive); in the experiment on OVCAR-4, 2.47 µM (inactive); in the experiment on NCI/ADR-RES, 0.132 µM (active); in the experiment with HL-60, 0.271 µM (active). The GI50 was 2.9 µM (inactive) in the experiment with RXF 393; 20.4 µM (inactive) in the experiment with A498; 0.34 µM (active) in the experiment with NCI-H226; 3.62 µM (inactive) with MOLT-4; 0.222 µM (active) with NCI-H460; 3.15 µM (inactive) with UO-31. The GI50 in the experiment with SK-MEL-2 was 1.83 µM (inactive); in the experiment with HOP-92, 0.771 µM (active); in the experiment on A549, 1.44 µM (inactive); with UACC-62, 0.507 µM (active); in the experiment on KM12, 1.77 µM (inactive); with OVCAR-3, 0.885 µM (active). Moreover, the GI50 is 2.19 µM (inactive) in the experiment with SW-620 and 0.239 µM (active) in the experiment with SF-295.

The record behind these values is ChEMBL document CHEMBL1201862, “PubChem BioAssay data set” (2004).
